Reference: patent publication US9023861B2, “Anticancer combination of artemisinin-based drugs and other chemotherapeutic agents” (Sigma-Tau Industrie Farmaceutiche Riunite, S.p.A., priority 2009, dated 2015)

Assays:
A2780 = assay: Anti-proliferative activity, sulphorodamine B test; type: cell-based; conditions: Homo sapiens, 24 h exposure, 48 h recovery
Description: (§1) The biological activity of DHA and ART on tumour cells survival was evaluated. The latter were seeded in 96-well tissue culture plates at approximately 10% confluence and were allowed to attach and recover for at least 24 h before being exposed to DHA or ART for 24 h at 37° C. They were then washed to remove DHA and ART and left to recover for 48 hours in medium culture. The medium culture was then removed and cells were washed three times with PBS. The plates were then incubated for on ice for 1 hour with 200 μl of PBS and 50 μl of cold 80% TCA before being washed with distilled water, dried on paper and finally at 40° C. for 5 minutes. 200 μl of 0.4% sulphorodamine B in 1% acetic acid were added and the incubation was prolonged for 30 minutes. Sulphorodamine B was removed, and the plates were washed 3 times with 1% acetic acid. They were finally dried on paper followed by standing at 40° C. for 5 minutes. Then 200 μl Tris 10 mM were added, the plates were kept under stirring for 20 minutes. Cell survival was determined as optical density at 540 nm by means of a Multiskan spectrofluorimeter. The amount of cells killed was expressed as the percentage decrease in sulphorodamine B binding compared to control cultures. IC50 were generated with their standard deviations by the ALLFIT program.

HCT116 = assay: Anti-proliferative activity, sulphorodamine B test; type: cell-based; conditions: Homo sapiens, HCT-116, 24 h exposure, 48 h recovery
Description: as §1

HT29 = assay: Anti-proliferative activity, sulphorodamine B test; type: cell-based; conditions: Homo sapiens, HT-29, 24 h exposure, 48 h recovery
Description: as §1

LoVo/Dx MDR = assay: Anti-proliferative activity, sulphorodamine B test; type: cell-based; conditions: LoVo/Dx MDR; 24 h exposure, 48 h recovery
Description: as §1

LoVo = assay: Anti-proliferative activity, sulphorodamine B test; type: cell-based; conditions: Homo sapiens, 24 h exposure, 48 h recovery
Description: as §1

MCF-7/Dx MDR = assay: Anti-proliferative activity, sulphorodamine B test; type: cell-based
Description: as §1

MCF-7 = assay: Anti-proliferative activity, sulphorodamine B test; type: cell-based; conditions: Homo sapiens, MCF7, 24 h exposure, 48 h recovery
Description: as §1

NCI-H460 = assay: Anti-proliferative activity, sulphorodamine B test; type: cell-based; conditions: Homo sapiens, 24 h exposure, 48 h recovery
Description: as §1

SW620 = assay: Anti-proliferative activity, sulphorodamine B test; type: cell-based; conditions: Homo sapiens, SW-620, 24 h exposure, 48 h recovery
Description: as §1

[1] = tested on: NCI-H460 non-small cell lung carcinoma; assay: In vivo antitumor activity, s.c. xenograft in CD1 nude mice; conditions: DHA 200 mg/kg p.o., AZD2281 100 mg/kg i.p., qdx5/wx3w
Description: NCI-H460 non-small cell lung carcinoma cells were inoculated subcutaneously (s.c.) in the right flank of CD1 nude mice (3×10^6/0.1 ml of Medium 199). Treatments started three days after tumour injection. Mice were subdivided (10 mice/group) in the following experimental groups:
(§2) a) Vehicle (DMSO 10%) 10 ml/kg, i.p.;
b) DHA 200 mg/kg, p.o. qdx5/wx3w;
d) AZD2281+DHA (doses and schedules as above).
For the latter experiment DHA was administered immediately before AZD2281.
To evaluate the antitumour activity, tumour diameters were measured with a Vernier calliper according to the formula TV=d^2×D/2 where d and D are the shortest and longest diameters, respectively.
When tumours reached a volume of about 1500 mm^3, mice were sacrificed by cervical dislocation. The efficacy of the drug was assessed as the tumour volume inhibition according to the formula reported underneath: […]
Body weight recording was carried out to evaluate body weight loss as calculated in the equation underneath: […]
Wherein BW day x corresponds to the mean weight at day x of the experiment meanwhile BW day 1 corresponds to the mean weight at the first day of the experiment.

[2] = tested on: HCT116 colon cancer cells; assay: In vivo antitumour activity, s.c. xenograft in CD1 nude mice; conditions: DHA 200 mg/kg p.o., AZD2281 100 mg/kg i.p., qdx5/wx4w
Description: HCT116 colon cancer cells were inoculated subcutaneously (s.c.) in the right flank of CD1 nude mice (5×10^6/0.1 ml of Medium 199). Treatments started three days after tumour injection. Mice were subdivided (8 mice/group) in the following experimental groups:
as §2
b) DHA 200 mg/kg, p.o. qdx5/wx4w;
d) AZD2281+DHA (doses and schedules as above);
e) ABT-888 50 mg/kg, i.p. qdx5/wx4w;
f) ABT-888+DHA (doses and schedules as above).
DHA was administered immediately before AZD2281 or ABT-888.
The antitumour activity was evaluated according to the protocol reported hereinabove in example 3 when tumours reached a volume of about 500 mm^3.
Body weight recording was carried out to evaluate body weight loss according to the protocol reported hereinabove in example 3.

C[C@H]1[C@@H](O)O[C@@H]2O[C@@]3(C)CC[C@H]4[C@H](C)CC[C@@H]1[C@@]24OO3 [DHA, dihydroartemisinin]
IC50 (A2780): 230 ± 20 nM
IC50 (HCT116): 370 ± 80 nM
IC50 (HT29): 5800 ± 500 nM
IC50 (LoVo/Dx MDR): 1180 ± 300 nM
IC50 (LoVo): 2570 ± 800 nM
IC50 (MCF-7/Dx MDR; MCF7/DX, MCF-7/Dx MDR, 24 h exposure, 48 h recovery): 970 ± 300 nM
resistance index (MCF-7/Dx MDR; MCF-7/Dx MDR versus MCF-7): 0.92
IC50 (MCF-7): 1050 ± 80 nM
IC50 (NCI-H460): 8160 ± 500 nM
IC50 (SW620): 1800 ± 100 nM
tolerability (body weight loss during the treatment) ([1]; NCI-H460 xenograft mice): well-tolerated
BWL % ([1]; body weight loss, NCI-H460 xenograft, CD1 nude mice): 0%
TVI % ([1]; tumour volume inhibition, NCI-H460 xenograft, CD1 nude mice): 3%
TV ± SE ([1]; tumour volume, NCI-H460 xenograft, CD1 nude mice, sacrifice at about 1500 mm^3): 1575 ± 191
tolerability (body weight loss during the treatment) ([2]; HCT116 xenograft mice, ABT-888 50 mg/kg): well-tolerated
BWL % ([2]; body weight loss, HCT116 xenograft, CD1 nude mice, ABT-888 50 mg/kg i.p.): 1%
TVI % ([2]; tumour volume inhibition, HCT116 xenograft, CD1 nude mice, ABT-888 50 mg/kg i.p.): 0%
TV ± SE ([2]; tumour volume, HCT116 xenograft, CD1 nude mice, ABT-888 50 mg/kg i.p., evaluated at about 500 mm^3): 447 ± 39
